This is an account of results in article PMC10980815, “Cell surface patching via CXCR4-targeted nanothreads for cancer metastasis inhibition” (Nature Communications, 2024).

Ends that are not written are not given here.

In test [1] the test system is orthotopic 4T1 breast tumors. The test can be described thus: Spontaneous lung metastasis model: tumor volume and pulmonary metastatic nodules. Format: in vivo, female BALB/c mice. The protocol: For the in vivo investigation of pulmonary metastasis, 4T1 cells (1 × 10^6 cells) were injected into the third mammary fat pad of female BALB/c mice (6–8 weeks). […] Tumor volumes were recorded every other day. On day 28, lungs were harvested and fixed with Bouin’s solutions. The pulmonary metastatic nodules were counted and analyzed by hematoxylin-eosin staining.

Another test has as its target T1, CXCR7 (Mus musculus, UniProt P56485).
T1 construct: endogenous in cells; host or cells: 4T1 murine breast cancer cells
The test can be described thus: Dose-dependent chemokine receptor occupation assay. Particulars: 4T1 cells, 0.1 nM to 1 mM, 1 h. It is filed as binding, 4T1 murine cells. The protocol: (§1) To validate the specificity of the BS (CXCR4-binding sequence) to CXCR4, a dose-dependent chemokine receptors occupation assay and a chemokine receptors competitive binding assay were conducted. […] Unoccupied chemokine receptors (CXCR4, CXCR7, CXCR2, CXCR5, and CCR4) on cell surface were stained with PE anti-human CD184/CXCR4 Antibody (1:300 dilution), anti-CXCR7-PE (1:300 dilution), anti-CXCR2-PE (1:300 dilution), anti-CXCR5-PE (1:300 dilution), and PE anti-human CD194/CCR4 Antibody (1:300 dilution) at 4 °C for 1 h, prior to flow cytometry analysis. In the chemokine receptors competitive binding assay, 4T1 cells (5 × 10^5 cells) were pre-blocked with PE anti-human CD184/CXCR4 Antibody (1:300 dilution), anti-CXCR7-PE (1:300 dilution), anti-CXCR2-PE (1:300 dilution), anti-CXCR5-PE (1:300 dilution), and PE anti-human CD194/CCR4 Antibody (1:300 dilution) at 4 °C for 1 h. Subsequently, these cells were treated with P-Cy5-BS-CM1-Cy5 (5 nM Cy5 equivalence) for 1 h. Following the treatments, cells were washed three times with PBS and subjected to flow cytometry analysis.

A further test has as its target T2, CXCR4 (Mus musculus, UniProt P70658).
T2 construct: endogenous in cells; host or cells: 4T1 murine breast cancer cells
The test can be described thus: Dose-dependent chemokine receptor occupation assay. Particulars: 4T1 cells, 0.1 nM to 1 mM, 25 °C, 1 h; unoccupied receptor stained with PE antibody. It is filed as binding, 4T1 murine cells. The protocol:
as §1

For test [2], the system named is orthotopic 4T1 breast tumors. The test can be described thus: Tumor-infiltrating CD8+ T lymphocytes, Tregs and MDSCs (flow cytometry). Format: in vivo, female BALB/c mice. The following applies: for CD3+CD8+ T cells (%) in tumor / CD11b+Gr1+ MDSCs (%) in tumor / Tregs (%) in CD4+ T cells: Supplementary Fig. 16b. The protocol:
4T1 cells (1 × 10^6 cells) were injected into the third mammary fat pad of female BALB/c mice (6–8-week). When tumor volumes reached nearly […] on day 7 after tumor inoculation, mice were randomly divided into 8 groups (n = 8 per group). For four groups without laser irradiation (−), mice were intravenously injected with the following samples: (1) saline on day 7, 14, 21, and 28, (2) P-PS on day 7, 14, 21, and 28, (3) P-BS-PS on day 7, 14, 21, and 28, or (4) P-BS-CM1 on day 7, 14, 21, and 28, followed by P-PS-CM2 on day 8, 15, 22, and 29 (5 mg/kg BS equivalence, CM1:CM2 1:1 mol%, 2.5 mg/kg PS equivalence), respectively. For four groups with laser irradiation (+), mice were treated with the same regimens and irradiated at 650 nm laser (580 mW/cm^2, 5 min) on day 9, 16, 23 and 30. Tumor volumes and mice survivals were recorded every other day. For the investigation of immune response and lung metastasis, 4T1 tumor-bearing female BALB/c mice (6–8-week, tumor volume~100 mm^3) were randomly divided into 8 groups (n = 5 per group) and given three rounds of above treatments. On day 28, lungs and tumors were harvested. lungs were fixed with Bouin’s solution. The pulmonary metastatic nodules were counted and analyzed by hematoxylin-eosin staining. Single-cell suspensions of tumor tissues were stained with anti-CD45-PerCP/Cy5.5 (1:300 dilution) and anti-calreticulin recombinant rabbit monoclonal antibody (1:500 dilution) at 4 °C for 1 h, and then stained with goat anti-rabbit IgG H&L Alexa Fluor® 647 (1:1000 dilution, 4 °C, 45 min), followed by flow cytometry analysis. ATP and HMGB1 concentrations in the supernatant of cell suspension were measured using a luciferase-based ATP assay kit and a mouse HMGB1 ELISA kit, respectively. Single-cell suspensions of tumors were stained with FITC anti-mouse CD3 antibody (1:300 dilution), PerCP/Cyanine5.5 anti-mouse CD4 antibody (1:300 dilution), anti-CD8α-APC (1:300 dilution), and anti-Foxp3-PE (1:300 dilution) for flow cytometry analysis of T cell subtypes (CD8^+ T cells, CD4^+ effector T cells, and Foxp3^+ regulatory T cells), and stained with PE anti-mouse/human CD11b antibody (1:300 dilution) and FITC anti-mouse Ly-6G/Ly-6C (Gr-1) antibody (1:300 dilution) for flow cytometry analysis of MDSCs (CD11b^+Gr1^+). Cytotoxic T cells in tumor tissues were investigated with immunofluorescent staining of IFN-γ and flow cytometry analysis using anti-IFN-γ-PE (1:300 dilution). For CD8-depletion assay, 4T1 tumor-bearing female BALB/c mice (6–8-week, tumor volume~100 mm^3) were randomly divided into 3 groups (n = 8 per group). Mice were intravenously given four doses of P-BS-CM1 on day 7, 14, 21 and 28, combined with P-PS-CM2 on day 8, 15, 22 and 29 (5 mg/kg BS equivalence, CM1:CM2 1:1 mol%, 2.5 mg/kg PS equivalence) in the presence or absence of InvivoMab anti-mouse CD8α (100 μg/mice). Mice were irradiated at 650 nm laser (580 mW/cm^2, 5 min) on day 9, 16, 23 and 30. Tumor volumes and mice survivals were recorded every other day.
Background: Flow cytometry measures light scatter and fluorescence of single cells or particles in a stream.

Test [3] addresses T3, Cy5-labeled P-BS-CM1 (P-BS-CM1-Cy5) (cysteines embedded within BS joined to maleimides of the HPMA copolymer backbone (thiol-ene click chemistry) | N-terminal cysteine joined to a maleimide of the HPMA copolymer backbone (thiol-ene …)).
T3 construct: copies: 6 + 4
T3 chain 1: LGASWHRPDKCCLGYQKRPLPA
T3 chain 2: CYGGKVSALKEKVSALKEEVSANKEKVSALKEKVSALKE
The test can be described thus: FRET or BRET. The following applies: both partners purified. A general note: In BRET a luciferase serves as donor, and the signal depends on an acceptor being close.

In a further test the target is T4, Nanothread-1 (P-BS-CM1) (not fully specified; cysteines embedded within BS joined to maleimides of the HPMA copolymer backbone (thiol-ene click chemistry) | N-terminal cysteine joined to a maleimide of the HPMA copolymer …).
T4 construct: source: synthetic peptides grafted on HPMA copolymer (P-Mal), dialysis and lyophilization; copies: 6 + 4
T4 chain 1: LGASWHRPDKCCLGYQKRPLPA
T4 chain 2: T3 chain 2
The test can be described thus: circular dichroism; P-BS-CM1, P-CM2 and their mixtures (CM1:CM2 3:1, 1:1, 1:3), total polymer 10 mg/mL, 10 mM PBS pH 7.4, 25 °C, 10 min. The following applies: both partners purified.

T2 sequence (P70658 whole entry): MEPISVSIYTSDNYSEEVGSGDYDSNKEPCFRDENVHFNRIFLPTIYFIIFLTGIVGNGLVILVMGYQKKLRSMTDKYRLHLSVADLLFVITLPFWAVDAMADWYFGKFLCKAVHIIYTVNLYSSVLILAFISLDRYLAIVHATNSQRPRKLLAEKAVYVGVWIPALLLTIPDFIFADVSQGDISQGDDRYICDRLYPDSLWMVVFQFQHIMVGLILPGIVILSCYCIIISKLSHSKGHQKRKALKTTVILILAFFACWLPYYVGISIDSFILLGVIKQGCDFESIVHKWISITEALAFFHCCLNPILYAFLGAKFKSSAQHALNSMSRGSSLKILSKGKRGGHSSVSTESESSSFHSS
T1 sequence (P56485 whole entry): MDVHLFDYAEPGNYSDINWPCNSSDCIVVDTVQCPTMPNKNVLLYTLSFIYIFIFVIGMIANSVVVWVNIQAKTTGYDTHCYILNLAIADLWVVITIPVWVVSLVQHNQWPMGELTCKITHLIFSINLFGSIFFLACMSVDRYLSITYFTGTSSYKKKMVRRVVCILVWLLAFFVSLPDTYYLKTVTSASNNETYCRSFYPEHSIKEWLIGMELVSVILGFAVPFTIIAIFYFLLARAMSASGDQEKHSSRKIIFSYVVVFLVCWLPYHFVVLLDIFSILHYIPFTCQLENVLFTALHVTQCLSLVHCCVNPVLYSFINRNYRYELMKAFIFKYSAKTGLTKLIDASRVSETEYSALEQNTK

As for `c1cc(CN2CCCNCCNCCCNCC2)ccc1CN1CCCNCCNCCCNCC1` [AMD3100, reference compound], the “Number of metastatic nodules” value in test [1] (2mg/kg, replicate 1) was found to be 31; in test [1] (2mg/kg, replicate 2) it was 32; in test [1] (2mg/kg, replicate 3) it was 20; in test [1] (2mg/kg, replicate 4), 20; in test [1] (2mg/kg, replicate 5), 18; in test [1] (5mg/kg, replicate 1), 12. For the same molecule, the “Number of metastatic nodules” value in test [1] (5mg/kg, replicate 2) was 14; in test [1] (5mg/kg, replicate 3), 15; in test [1] (5mg/kg, replicate 4), 9; in test [1] (5mg/kg, replicate 5), 12. For the same molecule, the primary tumor growth result in test [1] (nanothreads weekly i.v. x3, AMD3100 i.p. daily 2 or 5 mg/kg day 7-27) is reported as “dose-dependent anti-tumor activity”. Moreover, the CXCR7 occupation entry at CXCR7 is listed as “low affinity”. Also, at CXCR4, the CXCR4 occupation result is on record as “occupied CXCR4”. Besides, the “CD3+CD8+ T cells (%) in tumor” value is given as 0.1606% in test [2] (2 mg/kg, replicate 1 of 5); 0.2296% in test [2] (2 mg/kg, replicate 2 of 5); 0.134% in test [2] (2 mg/kg, replicate 3 of 5); 0.1643% in test [2] (2 mg/kg, replicate 4 of 5); 0.1515% in test [2] (2 mg/kg, replicate 5 of 5); 0.2311% in test [2] (5 mg/kg, replicate 1 of 5). The “CD3+CD8+ T cells (%) in tumor” value in test [2] (5 mg/kg, replicate 2 of 5) amounted to 0.1528%; in test [2] (5 mg/kg, replicate 3 of 5), 0.1403%; in test [2] (5 mg/kg, replicate 4 of 5), 0.2195%; in test [2] (5 mg/kg, replicate 5 of 5), 0.1508%. In addition, the “CD11b+Gr1+ MDSCs (%) in tumor” value in test [2] (2 mg/kg, replicate 1 of 5) came to 22.12%; in test [2] (2 mg/kg, replicate 2 of 5), 21.04%; in test [2] (2 mg/kg, replicate 3 of 5), 19.16%; in test [2] (2 mg/kg, replicate 4 of 5) it was 20.68%; in test [2] (2 mg/kg, replicate 5 of 5) it was 18.7%; in test [2] (5 mg/kg, replicate 1 of 5), 16.63%. The “CD11b+Gr1+ MDSCs (%) in tumor” value in test [2] (5 mg/kg, replicate 2 of 5) was 14.04%; in test [2] (5 mg/kg, replicate 3 of 5), 15.32%; in test [2] (5 mg/kg, replicate 4 of 5) it was 14.1%; in test [2] (5 mg/kg, replicate 5 of 5), 16%. The “Tregs (%) in CD4+ T cells” value in test [2] (2 mg/kg, replicate 1 of 5) amounted to 12.05%; in test [2] (2 mg/kg, replicate 2 of 5), 13.02%; in test [2] (2 mg/kg, replicate 3 of 5) it was 16.28%; in test [2] (2 mg/kg, replicate 4 of 5), 11.04%; in test [2] (2 mg/kg, replicate 5 of 5), 18.84%; in test [2] (5 mg/kg, replicate 1 of 5), 7.21%. Moreover, the “Tregs (%) in CD4+ T cells” value in test [2] (5 mg/kg, replicate 2 of 5) is on record as 6.69%; in test [2] (5 mg/kg, replicate 3 of 5), 12.48%; in test [2] (5 mg/kg, replicate 4 of 5) it was 10.38%; in test [2] (5 mg/kg, replicate 5 of 5), 8.46%. The “tumor-infiltrating CD8+ T cells” value in test [2] (day 28, AMD3100 i.p. daily 2 or 5 mg/kg, nanothreads weekly i.v.) is given as “remained low”.

B1: Cy3-labeled P-CM2 (P-CM2-Cy3) (other)
peptide: C(HPMA copolymer)YGGEVSALEKEVSALEKKNSALEKEVSALEKEVSALEK
modifications: also: Cy3 label on conjugate, position not given here
notes: copies: 12
Regarding B1, the binding result in test [3] is “binds”.

B2: HPMA copolymer-CM2 conjugate (P-CM2) (other)
peptide: CYGGEVSALEKEVSALEKKNSALEKEVSALEKEVSALEK
modifications: not fully specified (residue 1)
notes: source: synthetic peptide grafted on HPMA copolymer (P-Mal), dialysis and lyophilization; copies: 12
Consider B2, for which the binding result in the test with Nanothread-1 (P-BS-CM1) was “binds”.
